Test results: PMC10931740, “Uncovering the Role of Hydroxycinnamoyl Transferase in Boosting Chlorogenic Acid Accumulation in Carthamus tinctorius Cells under Methyl Jasmonate Elicitation” (International Journal of Molecular Sciences, 2024)

Tested on: T1, CtHCT (CtNewGene_3476), recombinant hydroxycinnamoyl transferase
T1 construct: gene HCT; HXXXD 156-160, DFGWG 379-383
Assay: HPLC product assay, Lineweaver-Burk
Type: biochemical, Carthamus tinctorius
Conditions: pH 7.5, 35 °C, 1 mM Cu2+
From the text: HPLC product assay, Lineweaver-Burk on CtHCT (CtNewGene_3476), recombinant hydroxycinnamoyl transferase

Km (saturating quinic acid) [µM]	Km (saturating p-coumaroyl-CoA) [µM]	SMILES
32.6		CC(C)(COP(=O)(O)OP(=O)(O)OC[C@H]1O[C@@H](n2cnc3c(N)ncnc32)[C@H](O)[C@@H]1OP(=O)(O)O)[C@@H](O)C(=O)NCCC(=O)NCCSC(=O)/C=C/c1ccc(O)c(O)c1 [C-COA, Caffeoyl-CoA]
	7.11	O=C(O)[C@]1(O)C[C@@H](O)[C@@H](O)[C@H](O)C1 [QA, Quinic acid]
	18.4	O=C(O)C1=C[C@@H](O)[C@@H](O)[C@H](O)C1 [SkA, Shikimic acid]
9.41		CC(C)(COP(=O)(O)OP(=O)(O)OC[C@H]1O[C@@H](n2cnc3c(N)ncnc32)[C@H](O)[C@@H]1OP(=O)(O)O)[C@@H](O)C(=O)NCCC(=O)NCCSC(=O)/C=C/c1ccc(O)cc1 [p-CoCOA, p-Coumaroyl-CoA]
